According to paper PMC7181641, “Aspartate aminotransferase Rv3722c governs aspartate-dependent nitrogen metabolism in Mycobacterium tuberculosis” (Nature Communications, 2020):

Tests used:
[1] = biological target: T1, Rv3722c (Mycobacterium tuberculosis, UniProt O69689)
[2] = biological target: T1, Rv3722c; remark: listed apart in the source

T1 sequence (O69689 whole entry): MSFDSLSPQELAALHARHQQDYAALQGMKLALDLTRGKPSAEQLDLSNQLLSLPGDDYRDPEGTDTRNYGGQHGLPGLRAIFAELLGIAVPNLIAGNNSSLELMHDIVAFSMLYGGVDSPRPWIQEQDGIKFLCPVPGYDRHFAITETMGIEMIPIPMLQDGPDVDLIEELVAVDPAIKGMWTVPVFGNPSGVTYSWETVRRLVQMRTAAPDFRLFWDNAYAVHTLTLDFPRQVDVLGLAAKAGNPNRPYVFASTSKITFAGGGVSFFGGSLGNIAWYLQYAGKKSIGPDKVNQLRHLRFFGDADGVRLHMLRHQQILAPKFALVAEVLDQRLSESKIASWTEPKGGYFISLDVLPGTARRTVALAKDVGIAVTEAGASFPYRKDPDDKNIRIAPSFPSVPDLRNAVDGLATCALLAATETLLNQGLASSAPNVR

Structure (SMILES)	X-ray crystal structure, 2.6 Å [1]	X-ray crystal structure, 2.23 Å [2]
N[C@@H](CCC(=O)O)C(=O)O [Glu]	clear electron density of the amino acid in the active site	
O=C(O)c1cc(O)c2ccccc2n1 [kynurenic acid]		or the final keto acid product kynurenic acid (Kyna)
Nc1ccccc1C(=O)C[C@H](N)C(=O)O [kynurenine]		chains were bound to either the external aldimine intermediate PLP-kynurenine (PLP-Kyn)
Cc1ncc(COP(=O)(O)O)c(C=O)c1O [pyridoxal phosphate]		the external aldimine intermediate PLP-kynurenine (PLP-Kyn)
